Experiments:
adult FVB mice = assay: Mouse model of acute noise-induced hearing loss (ABR, DPOAE, synaptic ribbon counts); details: no noise trauma; vs saline + noise and Afatinib + noise groups
Description: Subcutaneous needle electrodes were inserted behind the pinna (inverting), vertex of the skull (non-inverting) and base of the tail (ground). Tone bursts of 5 ms duration with 0.5 ms cosine-squared envelopes delivered at a rate of 21 stimuli per second with alternating polarity were generated using BioSigRZ software and RZ6 multi I/O processor system (Tucker-Davis Technologies, FL). Stimuli were presented as open field via a speaker (MF1; TDT, FL) placed 10 cm in front of the pinna of the animal. […] Stimulus intensity was decreased in 5 dB increments, starting from 100 db SPL to 0 dB SPL. […] Before the start of every session, stimulus presenting speaker (MF1) was calibrated with a ¼″ microphone (PCB-378C10; PCB Piezotronics, NY) that was also placed 10 cm in front of the speaker.
Another group of mice were administered saline. […] ABR and DPOAE thresholds were recorded prior, 7 days, or 14 days post noise exposure.
These groups of mice were additionally tested for DPOAE threshold.

[1] = system: EGFR downstream signaling pathways (AKT and MAPK); assay: Western blotting of EGFR downstream kinases in organ of Corti after transtympanic injection; assay type: in vivo, mouse; details: middle ear trans tympanic injection, 20 mg/ml; P28 FVB mice
Experimental: […]. […] Quarter 2 in the flow plot presents cells that are positive for EGFR. (B) P28 FVB mice were injected transtympanically with DMSO or 20 mg/ml of AG1478. Western blotting was performed on pooled organs of Corti to detect the phosphorylation of EGFR downstream kinases. (C) Zebrafish not injected or injected with 2 ng of scrambled or EGF ligand (EGFL) specific morpholinos (Gene Tools). […]. Quantification of the HCs was performed in SO3, O1 and O2 neuromasts. P<0.0001 versus the corresponding control (One-way ANOVA). […] (D) PCR from scrambled and EGFL morphants.
Now referring to FIGS. 2A-D, to determine whether functional EGFR is expressed in the adult cochlea, flow cytometry was used to identify epithelial cells that express EGFR protein in the adult cochlea (FIG. 2A). In P28 FVB mice, excluding dead cells and those with autofluorescence, we detected 1140±88 EGFR+; EpCAM+ (an epithelial cell marker) cells from one cochlea (Mean±SEM, n=4).

[2] = system: zebrafish neuromast hair cells; assay: Zebrafish cisplatin ototoxicity, neuromast hair cell count; assay type: in vivo

CN(C)C/C=C/C(=O)Nc1cc2c(Nc3ccc(F)c(Cl)c3)ncnc2cc1O[C@H]1CCOC1 [Afatinib]
DPOAE threshold, Afatinib without noise trauma (adult FVB mice): reduced DPOAE threshold at all f2 frequencies

COc1cc2ncnc(Nc3cccc(Cl)c3)c2cc1OC [AG1478]
EGFR downstream signaling (AKT and MAPK) in the organ of Corti [1]: significantly suppressed

O=C(CCCCCCC(=O)Nc1ccccc1)NO [Vorinostat]
protection against CIHL ([2]; doses of 0.002, 0.0183 and 0.165 μM, 1 hour pre-incubation, then 400 µM cisplatin for 4 hours): showed protection against CIHL
Cisplatin damage in HCs at SO3 and O1-2 neuromasts ([2]; pretreated with various doses): significantly reduced Cisplatin damage
